Assay results taken from US10952433B2, “Solutions for enhancing the effectiveness of insecticides and fungicides on living plants and related methods” (priority 2015, dated 2021).
Like-named read-outs stand apart in the source and are kept apart here.

Columns and labels:
[1] = test system: lepidopteran larvae: cabbage loopers (Trichoplusia ni) and beet armyworms (Spodoptera exigua); format: in vivo; conditions: leaf discs
Method in brief: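 Romaine lettuce leaf discs (⅝ inch) dipped about one second in treatment solution and infested with four cabbage loopers and four beet armyworms (3rd-4th instar) per container. Held dark at 15 °C, 80% RH; percent disc-area damage scored visually in 5% increments at 24, 48 and 72 h.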

[2] = test system: lepidopteran larvae: cabbage loopers (Trichoplusia ni) and beet armyworms (Spodoptera exigua); format: in vivo; conditions: plants
Method in brief: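 Romaine lettuce plants 2-3 inches tall were sprayed with 10 mL of insecticide (ppm) with buffer, amine oxide or buffered amine oxide at 200:1, then infested with 15 T. ni and 15 S. exigua larvae (5th-6th instar) per container. Leaf surface damage scored visually in 5% increments after 24 h.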

Gypsy Moth Catepillar = experiment: Gypsy moth caterpillar damage to white oak seedlings after hand spray (Table 5); format: in vivo, gypsy moth (on white oak seedlings)
Protocol: The particular solutions tested were applied to a stem of the white oak seedling using a low volume hand spray and spraying 20 milliliters per seedling. A total of 20 seedlings were tested. […] At permethrin concentration of 50 ppm, the damage after one month was 30% and with 100 ppm used alone, the damage was 0. When buffered amine oxide system No. 3 was employed in concentrations of 400:1 with 10 ppm of the insecticide, the gypsy moth caterpillar damage was 10% and when a concentration of 200:1 was employed with 10 ppm insecticide, the damage was 0.

[3] = insecticide + CO3 buffer 200:1, no amine oxide, PPM: Chlorantranilopril 60, Acephate 70, Methoxyfenozide 100, Spinosad 30, Permethrin 10, Indoxacarb 50
[4] = insecticide + PO4 buffer 200:1, no amine oxide, PPM: Chlorantranilopril 60, Acephate 70, Methoxyfenozide 100, Spinosad 30, Permethrin 10, Indoxacarb 50
[5] = insecticide + amine oxide 12, no buffer, 200:1, PPM: Chlorantranilopril 60, Acephate 70, Methoxyfenozide 100, Spinosad 30, Permethrin 10, Indoxacarb 50
[6] = insecticide + amine oxide 1218, no buffer, 200:1, PPM: Chlorantranilopril 60, Acephate 70, Methoxyfenozide 100, Spinosad 30, Permethrin 10, Indoxacarb 50
[7] = insecticide + buffered amine oxide system CO3, 12, 200:1, PPM: Chlorantranilopril 60, Acephate 70, Methoxyfenozide 100, Spinosad 30, Permethrin 10, Indoxacarb 50
[8] = insecticide + buffered amine oxide system CO3, 1218, 200:1, PPM: Chlorantranilopril 60, Acephate 70, Methoxyfenozide 100, Spinosad 30, Permethrin 10, Indoxacarb 50
[9] = insecticide + buffered amine oxide system PO4, 12, 200:1, PPM: Chlorantranilopril 60, Acephate 70, Methoxyfenozide 100, Spinosad 30, Permethrin 10, Indoxacarb 50
[10] = insecticide + buffered amine oxide system PO4, 1218, 200:1, PPM: Chlorantranilopril 60, Acephate 70, Methoxyfenozide 100, Spinosad 30, Permethrin 10, Indoxacarb 50
[11] = insecticide alone, highest, PPM: Chlorantranilopril 120, Acephate 140, Methoxyfenozide 200, Spinosad 60, Permethrin 20, Indoxacarb 100
[12] = insecticide alone, increased, PPM: Chlorantranilopril 90, Acephate 105, Methoxyfenozide 150, Spinosad 45, Permethrin 15, Indoxacarb 75
[13] = insecticide alone, PPM: Chlorantranilopril 60, Acephate 70, Methoxyfenozide 100, Spinosad 30, Permethrin 10, Indoxacarb 50

CC1(C)C(C=C(Cl)Cl)C1C(=O)OCc1cccc(Oc2ccccc2)c1 (stereo not drawn) [Permethrin]
Percent Lepidopteran Damage to Romaine Lettuce 24 hr [1, 3]: 53.5%
Percent Lepidopteran Damage to Romaine Lettuce 24 hr [1, 4]: 28.5%
Percent Lepidopteran Damage to Romaine Lettuce 24 hr [1, 5]: 17.0%
Percent Lepidopteran Damage to Romaine Lettuce 24 hr [1, 6]: 24.0%
Percent Lepidopteran Damage to Romaine Lettuce 24 hr [1, 7]: 23.5%
Percent Lepidopteran Damage to Romaine Lettuce 24 hr [1, 8]: 2.0%
Percent Lepidopteran Damage to Romaine Lettuce 24 hr [1, 9]: 3.0%
Percent Lepidopteran Damage to Romaine Lettuce 24 hr [1, 10]: 1.5%
Percent Lepidopteran Damage to Romaine Lettuce 24 hr [1, 11]: 1.5%
Percent Lepidopteran Damage to Romaine Lettuce 24 hr [1, 12]: 0.0%
Percent Lepidopteran Damage to Romaine Lettuce 24 hr [1, 13]: 85.5%
Percent Lepidopteran Damage to Romaine Lettuce 48 hr [1, 3]: 97.5%
Percent Lepidopteran Damage to Romaine Lettuce 48 hr [1, 4]: 79.0%
Percent Lepidopteran Damage to Romaine Lettuce 48 hr [1, 5]: 60.0%
Percent Lepidopteran Damage to Romaine Lettuce 48 hr [1, 6]: 95.0%
Percent Lepidopteran Damage to Romaine Lettuce 48 hr [1, 7]: 67.0%
Percent Lepidopteran Damage to Romaine Lettuce 48 hr [1, 8]: 4.5%
Percent Lepidopteran Damage to Romaine Lettuce 48 hr [1, 9]: 10.5%
Percent Lepidopteran Damage to Romaine Lettuce 48 hr [1, 10]: 3.0%
Percent Lepidopteran Damage to Romaine Lettuce 48 hr [1, 11]: 4.0%
Percent Lepidopteran Damage to Romaine Lettuce 48 hr [1, 12]: 0.5%
Percent Lepidopteran Damage to Romaine Lettuce 48 hr [1, 13]: 100.0%
Percent Lepidopteran Damage to Romaine Lettuce 72 hr [1, 3]: 100.0%
Percent Lepidopteran Damage to Romaine Lettuce 72 hr [1, 4]: 100.0%
Percent Lepidopteran Damage to Romaine Lettuce 72 hr [1, 5]: 89.0%
Percent Lepidopteran Damage to Romaine Lettuce 72 hr [1, 6]: 100.0%
Percent Lepidopteran Damage to Romaine Lettuce 72 hr [1, 7]: 91.0%
Percent Lepidopteran Damage to Romaine Lettuce 72 hr [1, 8]: 5.0%
Percent Lepidopteran Damage to Romaine Lettuce 72 hr [1, 9]: 21.0%
Percent Lepidopteran Damage to Romaine Lettuce 72 hr [1, 10]: 3.0%
Percent Lepidopteran Damage to Romaine Lettuce 72 hr [1, 11]: 4.5%
Percent Lepidopteran Damage to Romaine Lettuce 72 hr [1, 12]: 0.5%
Percent Lepidopteran Damage to Romaine Lettuce 72 hr [1, 13]: 100.0%
Percent Lepidopteran Damage to Romaine Lettuce 24 hr [2, 3]: 80.5%
Percent Lepidopteran Damage to Romaine Lettuce 24 hr [2, 4]: 83.0%
Percent Lepidopteran Damage to Romaine Lettuce 24 hr [2, 5]: 77.5%
Percent Lepidopteran Damage to Romaine Lettuce 24 hr [2, 6]: 72.0%
Percent Lepidopteran Damage to Romaine Lettuce 24 hr [2, 7]: 22.5%
Percent Lepidopteran Damage to Romaine Lettuce 24 hr [2, 8]: 28.0%
Percent Lepidopteran Damage to Romaine Lettuce 24 hr [2, 9]: 24.0%
Percent Lepidopteran Damage to Romaine Lettuce 24 hr [2, 10]: 21.0%
Percent Lepidopteran Damage to Romaine Lettuce 24 hr [2, 11]: 90.0%
Percent Lepidopteran Damage to Romaine Lettuce 24 hr [2, 12]: 78.0%
Percent Lepidopteran Damage to Romaine Lettuce 24 hr [2, 13]: 77.0%
Percent Gypsy Moth Catepillar Damage to White Oak 1 Month After Application (Gypsy Moth Catepillar; Permethrin 10 PPM + buffered amine oxide system 3, amine oxide 12, 200:1): 0%
Percent Gypsy Moth Catepillar Damage to White Oak 1 Month After Application (Gypsy Moth Catepillar; Permethrin 10 PPM + buffered amine oxide system 3, amine oxide 12, 400:1): 10%
Percent Gypsy Moth Catepillar Damage to White Oak 1 Month After Application (Gypsy Moth Catepillar; Permethrin 10 PPM + buffered amine oxide system 4, amine oxide 12, 200:1): 0%
Percent Gypsy Moth Catepillar Damage to White Oak 1 Month After Application (Gypsy Moth Catepillar; Permethrin 10 PPM + buffered amine oxide system 4, amine oxide 12, 400:1): 10%
Percent Gypsy Moth Catepillar Damage to White Oak 1 Month After Application (Gypsy Moth Catepillar; Permethrin 10 PPM alone): 80%
Percent Gypsy Moth Catepillar Damage to White Oak 1 Month After Application (Gypsy Moth Catepillar; Permethrin 50 PPM alone): 30%
Percent Gypsy Moth Catepillar Damage to White Oak 1 Month After Application (Gypsy Moth Catepillar; Permethrin 100 PPM alone): 0%
